Experimental data taken from patent US9556153B1, “JAK1 inhibitors” (Eli Lilly and Company, priority 2015, dated 2017).

Legend:
JAK1 [1] = target: T1, JAK1 (Homo sapiens, UniProt P23458); assay: JAK LanthaScreen Kinase Assay (TR-FRET), JAK1 in vitro enzyme assay; format: biochemical; conditions: ATP 20.0 μM; n=6
Excerpt: JAK1, JAK2 and JAK3 In Vitro Enzyme Assays
The JAK LanthaScreen™ Kinase Assay (Invitrogen) is used to determine the ability of test compounds to inhibit JAK1, JAK2 and JAK3 kinase activity. These are TR-FRET assay formats that use long-lifetime terbium labeled antibody as the donor species and GFP-STAT1 as the acceptor species. Use the TR-FRET ratio to monitor JAK kinase activity where an increase in phosphorylation of the GFP-STAT1 results in an increase in the TR-FRET ratio. Perform the kinase reaction using a 12.5 μl reaction volume in shallow black 384-well Proxiplate. Add reagents to obtain final reaction conditions of […] HEPES pH, 1.76 mM Triton X-100, ATP (20.0 μM for JAK1 and JAK3 or 5 μM for JAK2) enzyme assays, 10.0 mM MgCl2, 1 mM EGTA and 0.01% Brij-35, 0.05 mM GFP-STAT1, 14 nM JAK1 enzyme for JAK1, 1.0 nM for JAK2 or 2.5 nM for JAK3 enzyme assays, and 4% DMSO and serial dilutions of test compound (diluted 1:3 from 20,000 to 1 nM). Following ATP/GFP-STAT1 addition, centrifuge the assay plates for 1 minute at 1000 revolutions per minute (RPM). Allow the plates to incubate at RT for 60 minutes and then add 12.5 μl of a stopping buffer containing 20 mM EDTA, 2 nM Terbium-anti-phosphorylated Signal Transducers and Activators of Transcription [phosphorylation Tyrosine 701 amino acid] […]

JAK1 [2] = target: T1, JAK1; assay: AlphaScreen SureFire IL6-TF-1-JAK1 cell-based assay (pSTAT3 detection); set-up: endogenous in cells; host or cells: TF-1 cells; conditions: TF-1 cells, IL6 30 ng/mL; n=10; read-out: IC50, IL6-stimulated TF-1 JAK1 cell-based assay
Protocol: AlphaScreen SureFire Protocol […]-(p-Tyr705)-IL6-TF-1-JAK1 Cell-Based Assay
The JAK1 cell based assay described below is used to determine the JAK1 cellular potency of test compounds.
Starve TF-1 cells in DMEM medium with 0.5% […] and 1× Pen/Strep at 37° C. Plate 100K cells per well in BD 96 well black plates with clear bottoms. Maintain the plates at RT for 30-60 minutes before incubating overnight at 37° C. and 5% CO2. Count cells using Vi-Cell counter, using a cell suspension at […] and plated 100 μL/well in […] Biocoat plates (Catalog #354640).
Prepare compounds at 1:3 serial dilutions in DMSO and further dilute into the medium. Test compounds in a range of 10 point concentrations from 20,000 to 1 nM. Add diluted compound to corresponding cell plates. […]
(§1) Perform the following steps sequentially: make acceptor mix (activation buffer/reaction buffer/acceptor beads); transfer 4 μL lysate from 96 well plates to 384 well-Proxiplates; add 5 μL acceptor mix to 384 proxiplate plate(s) and seal plates with aluminum seal; shake 1-2 minutes on plate shaker; incubate plate at RT for 2 hr with gentle shaking; make donor mix (donor beads in dilution buffer); add 2 μL donor mix to assay plates; seal plates with aluminum seal; shake 1-2 minutes on plate shaker; incubate at RT for 2 hr with gentle shaking; read plate with Envision; protocol AlphaScreen Surefire 384.

JAK2 = JAK2 (Homo sapiens, UniProt O60674); assay: AlphaScreen SureFire p-STAT5 (p-Tyr694/699)-EPO-JAK2 cell-based assay (UT-7 cells); set-up: purchased Invitrogen; conditions: EPO 45 ng/mL, n=5, read-out: IC50, EPO-stimulated pSTAT5 JAK2 cell-based assay
Sequence of JAK2 (O60674 whole entry): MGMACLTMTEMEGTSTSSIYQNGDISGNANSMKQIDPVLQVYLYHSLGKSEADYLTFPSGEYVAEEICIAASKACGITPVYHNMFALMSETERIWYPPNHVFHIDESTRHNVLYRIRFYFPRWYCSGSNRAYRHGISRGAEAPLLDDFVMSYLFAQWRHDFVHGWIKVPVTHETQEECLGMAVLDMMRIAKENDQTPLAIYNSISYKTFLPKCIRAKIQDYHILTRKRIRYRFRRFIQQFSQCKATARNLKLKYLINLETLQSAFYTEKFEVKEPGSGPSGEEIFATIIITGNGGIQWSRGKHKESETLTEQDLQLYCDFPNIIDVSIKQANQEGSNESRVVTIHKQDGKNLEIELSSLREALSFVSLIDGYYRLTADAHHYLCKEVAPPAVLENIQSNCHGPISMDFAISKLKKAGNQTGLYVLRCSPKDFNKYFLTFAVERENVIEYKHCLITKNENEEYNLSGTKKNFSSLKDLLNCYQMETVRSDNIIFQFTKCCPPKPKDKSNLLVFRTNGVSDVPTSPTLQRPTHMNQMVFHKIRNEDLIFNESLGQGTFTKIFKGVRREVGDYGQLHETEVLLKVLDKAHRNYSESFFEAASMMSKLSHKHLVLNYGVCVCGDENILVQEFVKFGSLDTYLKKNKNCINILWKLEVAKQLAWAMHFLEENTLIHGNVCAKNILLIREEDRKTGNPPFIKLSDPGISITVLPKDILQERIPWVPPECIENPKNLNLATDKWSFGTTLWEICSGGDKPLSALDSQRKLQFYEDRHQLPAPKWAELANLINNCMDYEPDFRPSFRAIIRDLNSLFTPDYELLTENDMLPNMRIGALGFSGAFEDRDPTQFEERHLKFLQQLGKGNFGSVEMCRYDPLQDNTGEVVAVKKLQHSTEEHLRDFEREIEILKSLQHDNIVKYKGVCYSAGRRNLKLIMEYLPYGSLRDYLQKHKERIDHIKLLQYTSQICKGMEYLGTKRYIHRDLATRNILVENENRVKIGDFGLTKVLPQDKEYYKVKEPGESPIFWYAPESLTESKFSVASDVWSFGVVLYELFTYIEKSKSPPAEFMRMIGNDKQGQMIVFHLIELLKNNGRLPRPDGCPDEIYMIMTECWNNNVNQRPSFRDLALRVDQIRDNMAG
Protocol: AlphaScreen SureFire Protocol p-STAT5 (p-Tyr694/699)-EPO-JAK2 Cell-Based Assay
The fold selectivity of test compounds for JAK1 over JAK2 is determined by a cellular assay, in which EPO is used to activate JAK2-STAT5 pathway, and pSTAT5 is used as the readout.
Starve UT-7 cells overnight in DMEM medium with 0.5% […] (FBS) and 1× Pen/Strep at 37° C. (without GM-CSF). Plate 50000 cells per well in BD 96 well black plates with clear bottoms (in medium without FBS and GM-CSF). Maintain the plates at RT for 30-60 minutes before incubating overnight at 37° C. and 5% CO2. Count cells using Vi-Cell counter, use a cell suspension at 500000 cells/mL and plated 100 μL/well in […] Biocoat plates Catalog #354640. […]
as §1, with “Follow the” for “Perform the”, “384 well-Proxiplate;” for “384 well-Proxiplates;”, “plate(s) with multidrop combi;” for “plate(s) and”, “2 μl” for “2 μL”, “assay plates with multidrop combi;” for “assay plates;”

T1 sequence (P23458 whole entry): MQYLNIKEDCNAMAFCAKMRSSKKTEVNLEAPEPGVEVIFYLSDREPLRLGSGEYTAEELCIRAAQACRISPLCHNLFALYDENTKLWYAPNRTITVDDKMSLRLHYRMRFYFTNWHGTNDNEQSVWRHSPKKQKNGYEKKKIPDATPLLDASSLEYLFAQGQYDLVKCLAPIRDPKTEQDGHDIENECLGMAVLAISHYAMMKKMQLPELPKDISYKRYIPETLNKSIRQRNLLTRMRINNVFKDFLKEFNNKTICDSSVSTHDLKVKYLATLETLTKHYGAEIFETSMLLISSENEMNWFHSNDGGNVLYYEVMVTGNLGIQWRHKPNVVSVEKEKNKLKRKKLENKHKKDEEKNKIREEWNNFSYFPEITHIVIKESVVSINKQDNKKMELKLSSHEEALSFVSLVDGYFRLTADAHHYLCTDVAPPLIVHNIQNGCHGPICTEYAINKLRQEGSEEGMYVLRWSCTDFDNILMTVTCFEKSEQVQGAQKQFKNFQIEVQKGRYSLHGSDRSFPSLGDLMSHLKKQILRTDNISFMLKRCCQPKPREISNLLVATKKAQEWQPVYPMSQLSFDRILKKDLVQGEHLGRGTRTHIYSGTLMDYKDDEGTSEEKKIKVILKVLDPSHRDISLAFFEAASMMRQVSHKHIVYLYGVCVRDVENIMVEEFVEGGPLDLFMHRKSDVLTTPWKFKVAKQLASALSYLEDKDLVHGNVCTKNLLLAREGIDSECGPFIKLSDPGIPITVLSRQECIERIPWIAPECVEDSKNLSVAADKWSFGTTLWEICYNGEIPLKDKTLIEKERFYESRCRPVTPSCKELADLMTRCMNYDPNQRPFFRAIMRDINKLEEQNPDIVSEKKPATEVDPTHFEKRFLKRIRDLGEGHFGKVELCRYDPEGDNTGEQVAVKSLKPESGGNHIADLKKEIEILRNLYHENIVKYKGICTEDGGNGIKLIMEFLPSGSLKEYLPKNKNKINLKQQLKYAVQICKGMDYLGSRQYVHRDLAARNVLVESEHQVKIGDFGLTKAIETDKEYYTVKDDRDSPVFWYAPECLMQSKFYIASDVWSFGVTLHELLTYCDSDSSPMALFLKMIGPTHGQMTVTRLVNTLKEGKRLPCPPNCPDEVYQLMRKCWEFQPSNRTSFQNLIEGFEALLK

An IC50 (JAK1 [1]) of 0.004 ± 0.0008 µM, an IC50 (JAK1 [2]) of 0.087 µM and an IC50 (JAK2) of 11.8 µM were found for `Cc1cc(Nc2cc(O[C@H]3CC[C@@H](NC[C@@H](O)C(F)(F)F)CC3)cc3c2ncn3C)nn1C` [Example 1, (2R)-3-{[cis-4-({4-[(1,5-Dimethyl-1H-pyrazol-3-yl)amino]-1-methyl-1H-benzimidazol-6-yl}oxy)cyclohexyl]amino}-1,1,1-trifluoropropan-2-ol] in this work.
